Measurements: EP4786474A1, “CRYSTALLINE FORM OF QUINAZOLINE DERIVATIVE AND PREPARATION METHOD THEREFOR” (Jiangsu Hengrui Pharmaceuticals Co., Ltd., priority 2023, dated 2025)

Assays:
[1] = Long-term/accelerated stability; type: physicochemical
Procedure: Samples of the crystal forms D, E, and H were left to stand under 25 °C/60% RH and 40 °C/75% RH conditions to investigate their stability: Table 30.

[2] = Influencing factor stability study; type: physicochemical
Procedure: Samples of the crystal forms D, E, and H were spread in open containers and left to stand under light exposure (4500 Lux), high temperature (40 °C and 60 °C), and high humidity (RH 75% and RH 92.5%) conditions for 1 month to investigate their stability.

[3] = DVS (dynamic vapor sorption) hygroscopicity testing; type: physicochemical
Description: According to the description of hygroscopicity characteristics and the definition of hygroscopic weight gain in "General Rule 9103, Guidelines for Hygroscopicity Trials for Pharmaceuticals" in the Chinese Pharmacopoeia, Volume IV, 2015 Edition: • deliquescent: sufficient water is absorbed to form a liquid; • extremely hygroscopic: the hygroscopic weight gain is not less than 15%; • hygroscopic: the hygroscopic weight gain is less than 15% but not less than 2%; • slightly hygroscopic: the hygroscopic weight gain is less than 2% but not less than 0.2%; • nonhygroscopic or practically nonhygroscopic: the hygroscopic weight gain is less than 0.2%.
DVS refers to dynamic vapor sorption: The analysis was performed using SMS DVS Advantage; at 25 °C, the humidity was changed as follows: 50%-95%-0%-95%-50%, in steps of 10% (5% for the last step) (specific humidity ranges are shown in corresponding patterns, and those listed here were used in most cases); the criterion was dm/dt being not greater than 0.002%.

[4] = system: EGFR wild-type Ba/F3 cells; assay: Ba/F3 cell proliferation assay (Celltiter-Glo); type: cell-based; settings: 72 h incubation
Procedure: (§1) EGFR wild-type Ba/F3 cells (Cobioer, Cat. No. CBP73110) in the logarithmic growth phase were seeded into a 96-well plate at 2.5 × 10^3 cells/100 µL in a growth medium, and HER2 wild-type Ba/F3 cells (Cobioer, Cat. No. CBP73110) or HER2 A775_G776insYVMA mutant Ba/F3 cells (Cobioer, Cat. No. CBP73184) in the logarithmic growth phase were seeded into a 96-well plate at 5 × 10^3 cells/100 µL in a growth medium. The plates were placed in a cell incubator at 37 °C overnight. The next day, the compound diluted in a 3-fold gradient with a medium was added to the plates at 100 µL/well. All treatments were performed in triplicate. The plates were incubated in the cell incubator at 37 °C for another 72 h. Celltiter-Glo Luminescent cell viability assay was performed.
(§2) The cell proliferation rate corresponding to each well was calculated according to the following formula: proliferation% = (test compound well G3 - G0 average value)/(DMSO control well G3 average value - G0 average value) × 100. According to the proliferation rate and concentration corresponding to each gradient concentration well, a gradient curve for cell proliferation was fitted using Prism Graphpad software, and the GI50 (GI50 is defined as the compound concentration corresponding to a cell proliferation inhibition rate of 50%) of the compound was calculated.

[5] = system: HER2 A775_G776insYVMA mutant Ba/F3 cells; assay: Ba/F3 cell proliferation assay (Celltiter-Glo); type: cell-based; settings: 72 h incubation
Procedure: as §1, §2

[6] = system: HER2 wild-type Ba/F3 cells; assay: Ba/F3 cell proliferation assay (Celltiter-Glo); type: cell-based; settings: 72 h incubation
Procedure: as §1, §2

C=CC(=O)N1[C@@H]2CC[C@H]1C[C@@H](Oc1ccc3ncnc(Nc4ccc(Oc5ccn6ncnc6c5)c(C)c4F)c3c1)C2 [Crystal form H, 1-(endo-3-((4-((4-([1,2,4]Triazolo[1,5-a]pyridin-7-yloxy)-2-fluoro-3-methylphenyl)amino)quinazolin-6-yl)oxy)-8-azabicyclo[3.2.1]octan-8-yl)prop-2-en-1-one]
Color and appearance ([1]; 25 °C/60% RH, 1 month): White powder | Crystal form ([1]; 25 °C/60% RH, 1 month): No change | Color and appearance ([1]; 25 °C/60% RH, 2 months): White powder | Crystal form ([1]; 25 °C/60% RH, 2 months): No change | Color and appearance ([1]; 25 °C/60% RH, 3 months): White powder | Crystal form ([1]; 25 °C/60% RH, 3 months): No change | Color and appearance ([1]; 25 °C/60% RH, 6 months): White powder | Crystal form ([1]; 25 °C/60% RH, 6 months): No change | Color and appearance ([1]; 25 °C/60% RH, 14 days): White powder | Crystal form ([1]; 25 °C/60% RH, 14 days): No change | Color and appearance ([1]; 40 °C/75% RH, 1 month): White powder | Crystal form ([1]; 40 °C/75% RH, 1 month): No change | Color and appearance ([1]; 40 °C/75% RH, 2 months): White powder | Crystal form ([1]; 40 °C/75% RH, 2 months): No change | Color and appearance ([1]; 40 °C/75% RH, 3 months): White powder | Crystal form ([1]; 40 °C/75% RH, 3 months): No change | Color and appearance ([1]; 40 °C/75% RH, 6 months): White powder | Crystal form ([1]; 40 °C/75% RH, 6 months): No change | Color and appearance ([1]; 40 °C/75% RH, 14 days): White powder | Crystal form ([1]; 40 °C/75% RH, 14 days): No change | Color and appearance ([1]; Initial, 0): White powder | Crystal form ([1]; Initial, 0): Crystal form H | Purity (%) ([1]; Initial, 0): 99.8% | physical and chemical stability ([1]; long-term/accelerated conditions): Conclusion: Under long-term/accelerated conditions, the crystal form H exhibited good physical and chemical stability. | Color and appearance ([2]; 40 °C, 1 month): White powder | Crystal form ([2]; 40 °C, 1 month): No change | Purity (%) ([2]; 40 °C, 1 month): 99.4% | Color and appearance ([2]; 40 °C, 7 days): White powder | Crystal form ([2]; 40 °C, 7 days): No change | Color and appearance ([2]; 40 °C, 14 days): White powder | Crystal form ([2]; 40 °C, 14 days): No change | Color and appearance ([2]; 60 °C, 1 month): White powder | Crystal form ([2]; 60 °C, 1 month): No change | Purity (%) ([2]; 60 °C, 1 month): 99.4% | Color and appearance ([2]; 60 °C, 7 days): White powder | Crystal form ([2]; 60 °C, 7 days): No change | Color and appearance ([2]; 60 °C, 14 days): White powder | Crystal form ([2]; 60 °C, 14 days): No change | Color and appearance ([2]; 75% RH, 1 month): White powder | Crystal form ([2]; 75% RH, 1 month): No change | Color and appearance ([2]; 75% RH, 7 days): White powder | Crystal form ([2]; 75% RH, 7 days): No change | Color and appearance ([2]; 75% RH, 14 days): White powder | Crystal form ([2]; 75% RH, 14 days): No change | Color and appearance ([2]; 92.5% RH, 1 month): White powder | Crystal form ([2]; 92.5% RH, 1 month): No change | Color and appearance ([2]; 92.5% RH, 7 days): White powder | Crystal form ([2]; 92.5% RH, 7 days): No change | Color and appearance ([2]; 92.5% RH, 14 days): White powder | Crystal form ([2]; 92.5% RH, 14 days): No change | Color and appearance ([2]; 4500 Lux, 1 month): White powder | Crystal form ([2]; 4500 Lux, 1 month): No change | Color and appearance ([2]; 4500 Lux, 7 days): White powder | Crystal form ([2]; 4500 Lux, 7 days): No change | Color and appearance ([2]; 4500 Lux, 14 days): White powder | Crystal form ([2]; 4500 Lux, 14 days): No change | Color and appearance ([2]; Initial, 0): White powder | Crystal form ([2]; Initial, 0): Crystal form H | Purity (%) ([2]; Initial, 0): 99.8% | physical and chemical stability ([2]; light exposure (4500 Lux), high temperature (40 °C and 60 °C), high humidity (RH 75% and RH 92.5%), 30 days): Conclusion: Standing under light exposure (4500 Lux), high temperature (40 °C and 60 °C), and high humidity (RH 75% and RH 92.5%) conditions for 30 days, the crystal form H exhibited good physical and chemical stability. | hygroscopic weight gain ([3]; accelerated experimental conditions, 70% RH): about 0.12% | hygroscopic weight gain ([3]; extreme conditions, 90% RH): about 0.22% | hygroscopic weight gain ([3]; normal storage conditions, 25 °C and 60% RH): about 0.09%

C=CC(=O)N1[C@@H]2CC[C@H]1C[C@@H](Oc1ccc3ncnc(Nc4ccc(Oc5ccn6ncnc6c5)c(C)c4F)c3c1)C2 [Example 1, 1-(endo-3-((4-((4-([1,2,4]Triazolo[1,5-a]pyridin-7-yloxy)-2-fluoro-3-methylphenyl)amino)quinazolin-6-yl)oxy)-8-azabicyclo[3.2.1]octan-8-yl)prop-2-en-1-one]
EGFR WT/ BaF3 Imax % [4]: 100% | HER2 A775_G776 ins YVMA/ BaF3 Imax % [5]: 100% | HER2 WT/ BaF3 Imax % [6]: 100%

Cc1cc(Nc2ncnc3ccc(NC4=NC(C)(C)CO4)cc23)ccc1Oc1ccn2ncnc2c1 [Tucatinib, reference compound]
HER2 A775_G776 ins YVMA/ BaF3 Imax % [5]: 100%
